The text below walks through data of patent publication US20060121082A1, “Method to enhance drug release from a drug-releasing material” (priority 2004, published 2006).

The assay is described as follows: microbiological proof of ciprofloxacin bioactivity after manufacturing and during in vitro drug release tests. The note with it: microbiologically proved.

The structures appear in SMILES notation.

Consider `O=C(O)c1cn(C2CC2)c2cc(N3CCNCC3)c(F)cc2c1=O` [Ciprofloxacin, ciprofloxacin], for which the “bioactivity of ciprofloxacin after manufacturing and during the in vitro drug release tests” value was “bioactive” (Example 1, P(L/DL)LA composite) and “bioactive” (Example 2, PLGA composite).
